The values that follow come from patent publication US5578725A, “Delta opioid receptor antagonists” (priority 1995, dated 1996).

Several values for one entry are separate records, joined by “and”; a condition that tells them apart may be missing. Equal values may be shown once. Where a name gives a salt, the structure may show the parent alone. Read-outs that look alike come from different tables or passages of the source.

Data set [1] concerns the target δ1 (Mus musculus, UniProt P32300). The note with it: for ED50 Ratio (95% C.L.): ED50 with antagonist/control ED50, DPDPE i.c.v.
Data set [2] deals with μ (Cavia porcellus, UniProt A0ACM8Q262). The note with it: data from Portoghese et al.; cited from earlier work.
The subject of data set [3] is rats. The note with it: compared to peptidyl delta-opioid receptor antagonists; Ser. No. 07/750,109; cited from earlier work.
The conditions of data set [4]: K. Arakawa et al.; cited from earlier work.
Data set [5] addresses T1, δ opioid receptors (Mus musculus, UniProt P32300). Details: mouse vas deferens (MVD) preparations; from tissue; host or cells: mouse vas deferens, electrically stimulated. The note with it: MVD, DADLE; data from Korlipara et al.; 15 min; read-out: Ke; cited from earlier work.
Data set [6] concerns δ2. The note with it: Jiang et al.; Korlipara et al.; cited from earlier work.
The conditions of data set [7]: compared with 2 or 3; cited from earlier work.
The target of data set [8] is T2, κ (Cavia porcellus, UniProt P41144).
T2 construct: Guinea Pig Brain Membranes; from tissue; host or cells: guinea pig brain membranes
The data set is described as follows: Binding to κ sites, competition with [3H]U69593, guinea pig brain membranes. The note with it: geometric mean of three replicates. The protocol: (§1) The opioid receptor affinities of the target compounds were determined on guinea pig membranes employing a modification of the method of Werling et al., J. Pharmacol. Exp. Ther., 233, 722 (1986).

Data set [9] addresses T3, δ1 (Cavia porcellus, UniProt A0A286XTF2).
T3 construct: Guinea Pig Brain Membranes; from tissue; host or cells: guinea pig brain membranes
The data set is described as follows: biochemical. The note with it: relative to NTI. It counts as binding, guinea pig. The protocol:
as §1

For data set [10], the system named is δ1. The data set is described as follows: biochemical. It counts as binding, guinea pig. The method, then: as §1
In data set [11] the test system is δ2. In words: biochemical. Type of data set: binding, guinea pig. The note with it: DSLET vs DPDPE. The protocol:
as §1

Data set [12] addresses T4, μ (Mus musculus, UniProt P42866).
T4 construct: male Swiss-Webster mice; from tissue; host or cells: living mouse (male Swiss-Webster)
The data set is described as follows: Tail-flick assay, antagonism of morphine (μ) antinociception. It counts as in vivo, male Swiss-Webster mice. (Thermal pain tests record how soon the animal reacts.)

Data set [13] deals with T5, κ (Mus musculus, UniProt P33534).
T5 construct: male Swiss-Webster mice; from tissue; host or cells: living mouse (male Swiss-Webster)
It counts as in vivo, male Swiss-Webster mice.

Data set [14] addresses T6, δ2 (Mus musculus, UniProt P32300).
T6 construct: male Swiss-Webster mice; from tissue; host or cells: living mouse (male Swiss-Webster)
In words: Tail-flick assay, antagonism of DSLET (δ2) antinociception. It counts as in vivo, male Swiss-Webster mice.

The target of data set [15] is T1, δ opioid receptors. In words: Antagonism of DADLE (δ) in electrically stimulated mouse vas deferens (MVD) preparation.
Data set [16] concerns the target μ opioid receptor (Cavia porcellus, UniProt A0ACM8Q262). The note with it: GPI, morphine, antagonist 100 nM.
Data set [17] concerns the target κ opioid receptor (Cavia porcellus, UniProt P41144). The note with it: GPI, ethylketazocine, antagonist 100 nM.

Broadly, the Ki is a measure of affinity in units of concentration, obtained from inhibition or displacement. `Oc1ccc2c3c1O[C@H]1c4[nH]c5ccccc5c4C[C@@]4(O)[C@@H](C2)N(CC2CC2)CC[C@]314` [Compound 1, naltrindole]: the “Dose required to double the ED50 of DPDPE, i.c.v.” value in data set [1] (mouse, in vivo) amounted to 0.3 nmol/kg. In data set [1] (mouse, in vivo, iv), the “Dose required to double the ED50 of DPDPE, i.v.” value came out at 2.19 µmol/kg and the “penetration into the CNS (in words)” value is on record as “penetrates the CNS more readily than the conjugates”. In addition, in data set [2], the Ki was 3.8 nM. For the same compound, in data set [3], the “suppression of ethanol drinking (in words)” value is recorded as “unexpectedly prolonged suppression of ethanol drinking”. Also, the “immunosuppressive activity (in words)” value in [4] was “potent immunosuppressive activity”. Further, the Kb in data set [5] is 0.2 nM.
`Oc1ccc2c3c1OC1c4c(c5ccccc5n4Cc4ccccc4)CC4(O)C(C2)N(CC2CC2)CCC314` (stereo not shown) [benzylnaltrindole]: in data set [6], the “in vivo δ subtype selectivity (in words)” value is “δ2 -selective antagonists”. In addition, in [7], the “lipophilicity (in words)” value is given as “considerably more lipophilic than 2 or 3”.
On to `Oc1ccc2c3c1O[C@H]1c4oc5ccccc5c4C[C@@]4(O)[C@@H](C2)N(CC2CC2)CC[C@]314` [naltriben (NTB), naltriben], for which the “suppression of ethanol drinking (in words)” value in data set [3] is “unexpectedly prolonged suppression of ethanol drinking”. For the same compound, the “in vivo δ subtype selectivity (in words)” value in data set [6] was “δ2 -selective antagonists”. The “lipophilicity (in words)” value in data set [7] is “considerably more lipophilic than 2 or 3”.
`O=C(O)CNC(=O)c1cccc2c3c([nH]c12)[C@@H]1Oc2c(O)ccc4c2[C@@]12CCN(CC1CC1)[C@H](C4)[C@]2(O)C3` [Compound 2, 7'-(Carboxamidoglycine)-17-(cyclopropylmethyl)-6,7-dehydro-3,14-dihydroxy-4,5α-epoxy-6,7,2',3'-indolomorphinan hydrochloride] came in with a Ki in data set [8] of 162 nM. The “affinity for δ1 sites relative to NTI (times greater)” value in data set [9] was 2 times. The “Ki Selectivity Ratio δ1/δ2” value in data set [10] (Ki δ1 / Ki δ2) is 8.2. For the same compound, the “preference between δ1 and δ2 putative binding sites (in words)” value in [10] ([3H]DPDPE vs [3H]DSLET) is “greater affinity for δ2 relative to δ1 putative binding sites”. For the same compound, in data set [11], the “factor by which compound competed more effectively with [3H]DSLET than with [3H]DPDPE for δ sites” value is recorded as 8-10. Also, the “ED50 Ratio (95% C.L.)” value in [12] (ED50 with antagonist/control ED50, morphine s.c., antagonist 20 pmol/kg i.c.v.) is recorded as 0.9 (0.8-1.1); in [13] (mouse, in vivo), 0.8 (0.7-0.9); in data set [14] (ED50 with antagonist/control ED50, DSLET i.c.v., antagonist 20 pmol/kg i.c.v.), 1.1 (0.8-1.6); in data set [1] (antagonist 20 pmol/kg i.c.v.) it was 5.3 (3.6-7.7); in [1] (antagonist 0.9 μmol/kg i.v.), 2.7 (1.9-4.0). Besides, the “antagonism of morphine antinociception (in words)” value in data set [12] (mice) is recorded as “No significant antagonism”. The “antagonism of U50488 antinociception (in words)” value in [13] (mice) is on record as “No significant antagonism”. Besides, in data set [14] (mice), the “antagonism of DSLET antinociception (in words)” value was “No significant antagonism”. In addition, the “antagonist potency, central vs peripheral delivery (in words)” value in data set [1] (central (i.c.v.) vs peripheral (i.v.)) is “highly potent δ opioid antagonists when administered centrally, and many orders of magnitude less potent when delivered by the peripheral route”. Further, in [1] (i.c.v., antagonist dose/(ED50 ratio - 1)), the “Dose required to double the ED50 of DPDPE, i.c.v.” value amounted to 0.0047 nmol/kg. For the same compound, the “antagonism of DPDPE antinociception (in words)” value in data set [1] (i.v. or i.c.v., mice) is reported as “effectively antagonized the antinociceptive effect of the δ1 agonist, DPDPE”. For the same compound, the “Dose required to double the ED50 of DPDPE, i.v.” value in data set [1] (i.v., antagonist dose/(ED50 ratio - 1)) was determined as 0.53 µmol/kg. Further, the “in vivo δ subtype selectivity (in words)” value in data set [1] (mouse, in vivo) is listed as “antagonized the δ1 agonist, DPDPE, but not the δ2 agonist, DSLET”. Further, the “i.v./i.c.v. dose ratio relative to that of NTI (times greater)” value in data set [1] (relative to NTI) was found to be 15. Also, in data set [15] (Ke (nM), MVD, DADLE, Ke = [antagonist]/(IC50 ratio - 1), antagonist 100 nM), the Kb is 3.2 nM and 1 to 5 nM. Besides, in data set [15] (MVD DADLE IC50 ratio / GPI EK IC50 ratio), the “IC50 Selectivity Ratio δ/κ” value is 30. Moreover, the “IC50 Selectivity Ratio δ/μ” value in [15] (MVD DADLE IC50 ratio / GPI morphine IC50 ratio) is reported as 21. Besides, in data set [15] (MVD, antagonist 100 nM, 15 min preincubation), the “IC50 ratio DADLE(δ)” value amounted to 32 ± 8. Also, the “IC50 ratio M(μ)” value in data set [16] is 1.5 ± 0.1. Also, in data set [17], the “IC50 ratio EK (κ)” value is on record as 1.1 ± 0.2.
